The values below come from US20230310445A1, “LOX ENZYME INHIBITING METHODS AND COMPOSITIONS” (ANOVIA BIOSCIENCES, INC., priority 2020, published 2023).

Where two headings read alike, the source gives them in different places. A value given as a limit tells only on which side of the number the result lay.

A short description of data set [1]: Microsome stability study. The following applies: for half-life at 2 μM / microsomal CLint at 2 μM / CLint scaled at 2 μM: CD-1, pH 7.4; for half-life at 2 μM / microsomal CLint at 2 μM: male mouse liver microsomes 0.5 mg/mL, NADPH; for CLint scaled at 2 μM: male, read-out: Scaled-up CLint; for CLint scaled at 2 μM / Predicted hepatic CL: mouse liver microsomes. It is filed as in vitro ADME, mouse. The protocol:
Pooled CD-1 mouse liver microsomes at 0.5 mg/mL were pre-incubated in phosphate buffer (100 mM, pH 7.4) containing 1 mM NADPH and 3 mM MgCl2 in a 96-well plate for 5 minutes at 37° C. Ultra-pure water was added instead of NADPH in the negative control group to exclude the misleading factor that resulted from instability of chemical itself. The reaction was initiated by adding test compound at the final concentration of 2 μM and incubated at 37° C. Aliquots were taken from the incubation at 0, 15, 30, 45 and 60 minutes followed by the addition of 4 volume of cold acetonitrile containing internal standards. Samples were centrifuged and supernatant was used for LC-MS/MS analysis.

Data set [2] deals with T1, Recombinant human LOXL2 (lysyl oxidase like 2) (Homo sapiens, UniProt Q9Y4K0).
T1 construct: purchased R&D systems
T1 sequence (Q9Y4K0 26-774): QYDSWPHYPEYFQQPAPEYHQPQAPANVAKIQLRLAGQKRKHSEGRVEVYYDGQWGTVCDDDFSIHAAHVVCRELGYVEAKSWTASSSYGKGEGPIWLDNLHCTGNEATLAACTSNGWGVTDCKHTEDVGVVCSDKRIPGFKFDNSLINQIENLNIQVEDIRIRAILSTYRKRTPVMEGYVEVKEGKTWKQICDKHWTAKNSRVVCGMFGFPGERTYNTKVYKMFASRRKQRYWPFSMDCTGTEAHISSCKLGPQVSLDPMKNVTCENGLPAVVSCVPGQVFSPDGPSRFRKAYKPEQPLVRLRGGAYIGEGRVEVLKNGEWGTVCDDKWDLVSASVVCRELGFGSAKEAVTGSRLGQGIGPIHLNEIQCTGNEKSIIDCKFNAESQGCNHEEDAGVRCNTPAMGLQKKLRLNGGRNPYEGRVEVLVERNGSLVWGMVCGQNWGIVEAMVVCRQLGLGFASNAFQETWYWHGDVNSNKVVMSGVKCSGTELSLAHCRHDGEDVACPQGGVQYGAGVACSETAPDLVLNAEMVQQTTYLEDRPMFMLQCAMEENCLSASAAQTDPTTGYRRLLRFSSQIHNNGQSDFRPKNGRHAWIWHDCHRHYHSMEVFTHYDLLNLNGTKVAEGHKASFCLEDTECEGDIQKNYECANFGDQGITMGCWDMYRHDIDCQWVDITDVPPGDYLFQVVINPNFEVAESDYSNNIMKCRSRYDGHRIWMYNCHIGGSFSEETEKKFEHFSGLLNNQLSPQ
The data set can be described thus: LOXL2 inhibition assay (fluorometric, cadaverine/Amplex Red/HRP). The conditions noted are these: IC50 class; recombinant human LOXL2, cadaverine substrate; read-out: Activity Range LOXL2. It is filed as biochemical. Summed up: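 Both enzymes assayed in 1.2 M urea, 50 mM sodium borate pH 8.0, 10 mM CaCl, with 30 min compound–enzyme preincubation at 37° C before cadaverine/Amplex Red/HRP addition. Fluorescence followed 60 min at 37° C; linear-slope rates, background-subtracted, as % of DMSO control, fitted by 4-parameter variable-slope curve (bottom fixed at 0).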

Data set [3] in a line: Permeability study in Caco-2 cell line. It is filed as in vitro ADME. The conditions noted are these: human; for efflux ratio at 2 h, 5 μM: Caco-2, pH 7.4; for Papp A→B at 2 h, 5 μM: Caco-2, apical to basolateral; for Papp A→B at 2 h, 5 μM / Papp B→A at 2 h, 5 μM: pH 7.4; for Papp B→A at 2 h, 5 μM: Caco-2, basolateral to apical. As to the method:
Caco-2 cell suspensions were dispensed into the inserts of the 96-well HTS Transwell plate and cultivated for 14-18 days. Transepithelial electrical resistance (TEER) across the monolayer was measured using Millicell Epithelial Volt-Ohm measuring system. The Caco-2 plate was then washed twice with pre-warmed HBSS (pH 7.4) and incubated at 37° C. for 30 minutes. To determine the rate of drug transport in the apical to basolateral direction. 5 μM test compound was added to the Transwell insert and the wells in the receiver plate were filled with HBSS (pH 7.4). To determine the rate of drug transport in the basolateral to apical direction, 5 μM test compound was added to the receiver plate wells and then the Transwell inserts were filled with HBSS (pH 7.4). The plates were incubated at 37° C. for 2 hours. 50 μL samples from donor sides and receiver sides were transferred to wells of a new 96-well plate followed by the addition of 4 volume of cold methanol containing internal standards (IS). Samples were centrifuged and the supernatant was used for LC-MS/MS analysis. After the incubation, residue solutions were removed from the Transwell plates, and Lucifer yellow (100 μM) solution was added to each Transwell insert, followed by filling the receiver wells with HBSS. The plates were incubated at 37° C. for 30 minutes. 80 μL samples were removed from the apical and basolateral wells and the fluorescence of Lucifer yellow was measured in a microplate reader with 485 nm excitation and 530 nm emission.
For orientation: Caco-2 cells form a polarised layer with tight junctions and transporters.

The mark [4] stands for this setting: Caco-2, pH 7.4, Caco-2, apical to basolateral, read-out: Recovery (%)AP-BL.
Where [5] appears, read: Caco-2, pH 7.4, Caco-2, basolateral to apical, read-out: Recovery (%)BL-AP.

Turning to `NCc1ccc(S(=O)(=O)N2C[C@H](C(=O)N3CCS(=O)(=O)CC3)C[C@@H](c3ccccc3)C2)s1.O=C(O)C(F)(F)F` (racemic) [Example 75B, trans-(1-((5-(Aminomethyl)thiophen-2-yl)sulfonyl)-5-phenylpiperidin-3-yl)(1,1-dioxidothiomorpholino)methanone 2,2,2-trifluoroacetate], in data set [1], the half-life (usually how long it takes for the measured level to halve) at 2 μM came out at 37.1 min; the microsomal CLint – broadly, the capacity of the preparation to metabolise the compound, expressed as a volume cleared per time – at 2 μM was found to be 37.3 µL/min/mg; the CLint scaled (usually a measure of how fast metabolising enzymes remove a compound, apart from limits set by blood flow) at 2 μM turned out to be 163 mL/min/kg; the “Predicted hepatic CL” value is on record as 58.02 mL/min/kg. Moreover, in data set [2], the IC50 was at most 500 nM. Moreover, in data set [3], the efflux ratio (in general, a quotient of directional permeabilities that is used to spot active efflux) at 2 h, 5 μM came out at 30.1; the Papp A→B (in general, how fast a substance crosses the layer from the apical side) at 2 h, 5 μM worked out at 0.4 ×10⁻⁶ cm/s; the Papp B→A (commonly the apparent permeability from the basolateral to the apical side of a cell layer) at 2 h, 5 μM worked out at 12.1 ×10⁻⁶ cm/s. Further, the recovery at 2 h, 5 μM in data set [3] (setting [4]) stood at 72.1%. In addition, the recovery at 2 h, 5 μM in data set [3] (setting [5]) came out at 83.5%.

For `NCc1ccc(S(=O)(=O)N2C[C@H](C(=O)N3CCOCC3)C[C@H](c3ccccc3)C2)s1` [Example 13B, ((3R,5R)-1-((5-(aminomethyl)thiophen-2-yl)sulfonyl)-5-phenylpiperidin-3-yl)(morpholino)methanone], in data set [1], the half-life at 2 μM stood at 79.7 min, the intrinsic clearance (microsomal CLint) at 2 μM was found to be 17.4 µL/min/mg, the CLint scaled at 2 μM was determined as 76.1 mL/min/kg and the “Predicted hepatic CL” value was 41.24 mL/min/kg. The IC50 in data set [2] is at most 500 nM. Moreover, in data set [3], the efflux ratio at 2 h, 5 μM is 24.5; the Papp A→B at 2 h, 5 μM was 1.16 ×10⁻⁶ cm/s; the apparent permeability from basolateral to apical (Papp B→A) at 2 h, 5 μM came to 28.5 ×10⁻⁶ cm/s. Besides, the recovery at 2 h, 5 μM in data set [3] (setting [4]) was determined as 76.8%. Further, the recovery at 2 h, 5 μM in data set [3] (setting [5]) was 78.8%.

For `CS(=O)(=O)[C@H]1C[C@@H](S(=O)(=O)c2cccc(CN)c2)CN(c2ccccc2)C1` (racemic) [Example 23, cis-(3-((-5-(Methylsulfonyl)-1-phenylpiperidin-3-yl)sulfonyl)phenyl)methanamine], in data set [1], the half-life at 2 μM was found to be 269 min, the microsomal CLint at 2 μM was determined as 5.14 µL/min/mg, the CLint scaled at 2 μM stood at 22.5 mL/min/kg and the “Predicted hepatic CL” value is on record as 18.00 mL/min/kg. In addition, the IC50 in data set [2] was at most 500 nM. In addition, in data set [3], the efflux ratio at 2 h, 5 μM is 61.4; the Papp A→B at 2 h, 5 μM came out at 0.38 ×10⁻⁶ cm/s; the apparent permeability from basolateral to apical (Papp B→A) at 2 h, 5 μM came to 23.3 ×10⁻⁶ cm/s. For the same compound, in data set [3] (setting [4]), the recovery at 2 h, 5 μM stood at 86.5%. Besides, in data set [3] (setting [5]), the recovery at 2 h, 5 μM was determined as 103%.

Consider `CS(=O)(=O)N1CCN(C(=O)[C@H]2C[C@@H](c3ccccc3F)CN(S(=O)(=O)c3ccc(CN)s3)C2)CC1.O=C(O)C(F)(F)F` (racemic) [Example 91, cis-(1-((5-(Aminomethyl)thiophen-2-yl)sulfonyl)-5-(2-fluorophenyl)piperidin-3-yl)(4-(methylsulfonyl)piperazin-1-yl)methanone 2,2,2-trifluoroacetate], for which, in data set [1], the half-life at 2 μM stood at 24.5 min, the microsomal CLint at 2 μM is 56.5 µL/min/mg, the CLint scaled at 2 μM was 247 mL/min/kg and the “Predicted hepatic CL” value was 65.98 mL/min/kg. Also, the IC50 in data set [2] is at most 500 nM. In data set [3], the efflux ratio at 2 h, 5 μM came to 138; the apical-to-basolateral permeability (Papp A→B) at 2 h, 5 μM was determined as 0.11 ×10⁻⁶ cm/s; the Papp B→A at 2 h, 5 μM came to 15.6 ×10⁻⁶ cm/s. In addition, in data set [3] (setting [4]), the recovery at 2 h, 5 μM was 68.6%. The recovery at 2 h, 5 μM in data set [3] (setting [5]) was 78.2%.
